This experiment concerns the target CK1δ (Homo sapiens, UniProt P48730). As to the kind of experiment: CK1δ kinase assay (Caliper LabChip electrophoretic separation of fluoresceinated peptide substrate and product). It is filed as biochemical. The note with it: 200 pM CK1δ, 50 μM ATP, 1.5 μM peptide, 22 hours at room temperature; read-out: CK1δ IC50 range. As to the method:
CK1ε and CK1δ Kinase Assays
The kinase assay was performed in V-bottom 384-well plates. […] The reaction was incubated at room temperature for 22 hours and terminated by adding 45 μl of 35 mM EDTA to each sample. The reaction mixture was analyzed on the Caliper LABCHIP®3000 (Caliper, Hopkinton, Mass.) by electrophoretic separation of the unphosphorylated substrate and phosphorylated product. […] Compounds were dissolved at 10 mM in dimethylsulfoxide (DMSO) and evaluated at eleven concentrations. IC50 values were derived by non-linear regression analysis.

A word on the IC50: it is the concentration that inhibits the measured activity by half.

Chain of CK1δ (P48730 whole entry): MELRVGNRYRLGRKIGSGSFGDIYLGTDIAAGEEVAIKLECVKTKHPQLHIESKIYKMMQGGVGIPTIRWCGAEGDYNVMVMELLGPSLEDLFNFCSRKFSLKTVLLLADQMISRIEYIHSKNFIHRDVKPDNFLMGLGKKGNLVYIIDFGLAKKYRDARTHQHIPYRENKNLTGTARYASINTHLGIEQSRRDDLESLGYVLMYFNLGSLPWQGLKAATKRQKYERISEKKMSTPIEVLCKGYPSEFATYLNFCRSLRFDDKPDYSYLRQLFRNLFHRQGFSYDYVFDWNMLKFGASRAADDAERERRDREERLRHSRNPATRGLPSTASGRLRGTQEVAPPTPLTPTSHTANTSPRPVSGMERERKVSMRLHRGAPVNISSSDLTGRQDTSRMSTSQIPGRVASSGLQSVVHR

Consider “2-(3-Chloro-4-fluorophenyl)-N^5-(3,3-difluorocyclobutyl)-7-isopropyl-6,7-dihydropyrazolo[1,5-a]pyrazine-3,5(4H)-dicarboxamide [Compound A123]”, for which the IC50 lay within 10 to 100 nM.

On to `NC(=O)c1c(-c2ccc(F)c(Cl)c2)nn2c1CN(C(=O)NC1CC(C(F)F)C1)CC2` (single isomer, unassigned) [Compound 252, 2-(3-Chloro-4-fluorophenyl)-N^5-(3-(difluoromethyl)cyclobutyl)-6,7-dihydropyrazolo[1,5-a]pyrazine-3,5(4H)-dicarboxamide], for which the half-maximal inhibitory concentration (IC50) lay within 0.01 to 10 nM.

On to `NC(=O)c1c(-c2ccc(F)c(Cl)c2)nn2c1CN(C(=O)NC1CC(C(F)F)C1)CC2` (single isomer, unassigned) [Compound 253, 2-(3-Chloro-4-fluorophenyl)-N^5-(3-(difluoromethyl)cyclobutyl)-6,7-dihydropyrazolo[1,5-a]pyrazine-3,5(4H)-dicarboxamide], for which the 50% inhibitory concentration (IC50) lay within 0.01 to 10 nM.

In the case of `CC(C)(C)NC(=O)N1Cc2c(C(N)=O)c(-c3ccc(F)c(Cl)c3)nn2C(CCO)C1` (single isomer, unassigned) [Compound A97, N^5-(tert-Butyl)-2-(3-chloro-4-fluorophenyl)-7-(2-hydroxyethyl)-6,7-dihydropyrazolo[1,5-a]pyrazine-3,5(4H)-dicarboxamide], the 50% inhibitory concentration (IC50) was in the range of 0.01 to 10 nM.

With `CC(C)(C)NC(=O)N1Cc2c(C(N)=O)c(-c3ccc(F)c(Cl)c3)nn2C(C(F)(F)F)C1` (single isomer, unassigned) [Compound A128, N^5-(tert-Butyl)-2-(3-chloro-4-fluorophenyl)-7-(trifluoromethyl)-6,7-dihydropyrazolo[1,5-a]pyrazine-3,5(4H)-dicarboxamide], the IC50 lay within 0.01 to 10 nM.

Regarding `Cc1cc(C)cc(-c2nn3c(c2C(N)=O)CN(C(=O)NC(C)(C)C)CC3)c1` [Compound 128, N^5-(tert-Butyl)-2-(3,5-dimethylphenyl)-6,7-dihydropyrazolo[1,5-a] pyrazine-3,5(4H)-dicarboxamide], the concentration for half-maximal inhibition (IC50) lay in the range of 10 to 100 nM.

`CC(F)(F)C(C)(C)NC(=O)N1CCn2nc(-c3cccc(Cl)c3)c(C(N)=O)c2C1` [Compound 174, 2-(3-Chlorophenyl)-N^5-(3,3-difluoro-2-methylbutan-2-yl)-6,7-dihydropyrazolo[1,5-a] pyrazine-3,5(4H)-dicarboxamide]: the IC50 was in the range of 0.01 to 10 nM.

In the case of `CO[C@H]1C[C@@H](NC(=O)N2CCn3nc(-c4ccc(F)c(Cl)c4)c(C(N)=O)c3C2)C1` [Compound 191, 2-(3-Chloro-4-fluorophenyl)-N^5-((1s,3s)-3-methoxycyclobutyl)-6,7-dihydropyrazolo[1,5-a] pyrazine-3,5(4H)-dicarboxamide], the IC50 lay in the range of 0.01 to 10 nM.

On to `CO[C@H]1C[C@H](NC(=O)N2CCn3nc(-c4ccc(F)c(Cl)c4)c(C(N)=O)c3C2)C1` [Compound 192, 2-(3-Chloro-4-fluorophenyl)-N^5-((1r,3r)-3-methoxycyclobutyl)-6,7-dihydropyrazolo[1,5-a] pyrazine-3,5(4H)-dicarboxamide], for which the IC50 was 0.01 to 10 nM.

For the compound `NC(=O)c1c(-c2ccc(F)c(Cl)c2)nn2c1CN(C(=O)NCC1CCC(F)(F)CC1)CC2` [Compound 194, 2-(3-Chloro-4-fluorophenyl)-N^5-((4,4-difluorocyclohexyl)methyl)-6,7-dihydropyrazolo[1,5-a] pyrazine-3,5(4H)-dicarboxamide], the IC50 was in the range of 0.01 to 10 nM.

On to `NC(=O)c1c(-c2ccc(F)c(Cl)c2)nn2c1CN(C(=O)N[C@@H]1C[C@@H]3[C@H](C1)C3(F)F)CC2` [Compound 197, 2-(3-Chloro-4-fluorophenyl)-N^5-((1R,3s,5S)-6,6-difluorobicyclo[3.1.0]hexan-3-yl)-6,7-dihydropyrazolo[1,5-a] pyrazine-3,5(4H)-dicarboxamide], for which the IC50 lay in the range of 0.01 to 10 nM.

`NC(=O)c1c(-c2ccc(F)c(Cl)c2)nn2c1CN(C(=O)N[C@H]1C[C@@H]3[C@H](C1)C3(F)F)CC2` [Compound 198]: the IC50 lay within 0.01 to 10 nM.

In the case of `CC(F)(F)C(C)(C)NC(=O)N1CCn2nc(-c3ccc(Cl)c(Cl)c3)c(C(N)=O)c2C1` [Compound 201, 2-(3,4-Dichlorophenyl)-N^5-(3,3-difluoro-2-methylbutan-2-yl)-6,7-dihydropyrazolo[1,5-a] pyrazine-3,5(4H)-dicarboxamide], the 50% inhibitory concentration (IC50) is 0.01 to 10 nM.

On to `NC(=O)c1c(-c2ccc(Cl)c(Cl)c2)nn2c1CN(C(=O)NC1CC3(CC3)C1)CC2` [Compound 207, 2-(3,4-Dichlorophenyl)-N^5-(spiro[2.3]hexan-5-yl)-6,7-dihydropyrazolo [1,5-a]pyrazine-3,5(4H)-dicarboxamide], for which the half-maximal inhibitory concentration (IC50) was in the range of 0.01 to 10 nM.

As for `CC(CF)(CF)NC(=O)N1CCn2nc(-c3ccc(Cl)c(Cl)c3)c(C(N)=O)c2C1` [Compound 210, 2-(3,4-Dichlorophenyl)-N^5-(1,3-difluoro-2-methylpropan-2-yl)-6,7-dihydropyrazolo [1,5-a]pyrazine-3,5(4H)-dicarboxamide], the 50% inhibitory concentration (IC50) was in the range of 0.01 to 10 nM.

In the case of `CC(CF)(CF)NC(=O)N1CCn2nc(-c3cccc(Cl)c3)c(C(N)=O)c2C1` [Compound 211, 2-(3-Chlorophenyl)-N^5-(1,3-difluoro-2-methylpropan-2-yl)-6,7-dihydropyrazolo[1,5-a]pyrazine-3,5(4H)-dicarboxamide], the IC50 lay within 0.01 to 10 nM.

Turning to `NC(=O)c1c(-c2ccc(F)c(Cl)c2)nn2c1CN(C(=O)NC1(COC(F)F)CCC1)CC2` [Compound 223, 2-(3-Chloro-4-fluorophenyl)-N^5-(1-((difluoromethoxy)methyl)cyclobutyl)-6,7-dihydropyrazolo[1,5-a]pyrazine-3,5(4H)-dicarboxamide], the concentration for half-maximal inhibition (IC50) was in the range of 0.01 to 10 nM.

In the case of `CC(C)(NC(=O)N1CCn2nc(-c3ccc(Cl)c(Cl)c3)c(C(N)=O)c2C1)C1CC(F)(F)C1` [Compound 228, 2-(3,4-Dichlorophenyl)-N^5-(2-(3,3-difluorocyclobutyl)propan-2-yl)-6,7-dihydropyrazolo[1,5-a] pyrazine-3,5(4H)-dicarboxamide], the IC50 lay within 0.01 to 10 nM.

Consider `CC1(CNC(=O)N2CCn3nc(-c4ccc(Cl)c(Cl)c4)c(C(N)=O)c3C2)CC(F)(F)C1` [Compound 231, 2-(3,4-Dichlorophenyl)-N^5-((3,3-difluoro-1-methylcyclobutyl)methyl)-6,7-dihydropyrazolo[1,5-a] pyrazine-3,5(4H)-dicarboxamide], for which the IC50 is 0.01 to 10 nM.

Consider `NC(=O)c1c(-c2ccc(F)c(Cl)c2)nn2c1CN(C(=O)N[C@@H]1CC[C@@H]1C(F)F)CC2` [Compound 238, 2-(3-Chloro-4-fluorophenyl)-N^5-((1R,2S)-2-(difluoromethyl)cyclobutyl)-6,7-dihydropyrazolo[1,5-a]pyrazine-3,5(4H)-dicarboxamide], for which the IC50 lay within 0.01 to 10 nM.

Regarding `NC(=O)c1c(-c2ccc(Cl)c(Cl)c2)nn2c1CN(C(=O)N[C@@H]1CC[C@@H]1C(F)F)CC2` [Compound 240, 2-(3,4-Dichlorophenyl)-N^5-((1R,2S)-2-(difluoromethyl)cyclobutyl)-6,7-dihydropyrazolo[1,5-a] pyrazine-3,5(4H)-dicarboxamide], the 50% inhibitory concentration (IC50) lay in the range of 0.01 to 10 nM.

Take `NC(=O)c1c(-c2cccc(Cl)c2)nn2c1CN(C(=O)N[C@@H]1CC[C@H]1COC(F)F)CC2` [Compound 242, 2-(3-Chlorophenyl)-N^5-((1R,2R)-2-((difluoromethoxy)methyl)cyclobutyl)-6,7-dihydropyrazolo[1,5-a] pyrazine-3,5(4H)-dicarboxamide]: the IC50 was 0.01 to 10 nM.

For the origin of these results see patent US9273058B2 (BRISTOL-MYERS SQUIBB COMPANY, priority 2013, dated 2016).
